The numbers were not newly measured in patent publication US20040038429A1, “Method of searching for novel lead compound” (priority 2000, published 2004), which cites them from elsewhere.

SMILES strings stand for the structures. Where two headings read alike, the source gives them in different places.

The target in data set [1] is Thrombin (Homo sapiens, UniProt P00734).
Data set [2] deals with T1, Trypsin (Bos taurus, UniProt P00760).
T1 construct: gene PRSS1

For data set [3], the target named is 5-HT4 (Homo sapiens, UniProt Q13639).
5-HT4, sequence (Q13639 whole entry, species assumed): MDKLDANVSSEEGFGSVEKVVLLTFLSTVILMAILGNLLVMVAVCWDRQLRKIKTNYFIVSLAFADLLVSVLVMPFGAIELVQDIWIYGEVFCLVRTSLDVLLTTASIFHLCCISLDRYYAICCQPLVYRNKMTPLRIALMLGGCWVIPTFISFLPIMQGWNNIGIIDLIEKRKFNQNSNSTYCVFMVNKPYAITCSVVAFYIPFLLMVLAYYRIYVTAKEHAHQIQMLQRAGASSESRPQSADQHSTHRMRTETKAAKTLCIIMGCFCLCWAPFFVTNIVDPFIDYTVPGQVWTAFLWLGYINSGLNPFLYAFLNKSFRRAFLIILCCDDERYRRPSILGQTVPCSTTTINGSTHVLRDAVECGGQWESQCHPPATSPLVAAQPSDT

T1 sequence (P00760 24-246): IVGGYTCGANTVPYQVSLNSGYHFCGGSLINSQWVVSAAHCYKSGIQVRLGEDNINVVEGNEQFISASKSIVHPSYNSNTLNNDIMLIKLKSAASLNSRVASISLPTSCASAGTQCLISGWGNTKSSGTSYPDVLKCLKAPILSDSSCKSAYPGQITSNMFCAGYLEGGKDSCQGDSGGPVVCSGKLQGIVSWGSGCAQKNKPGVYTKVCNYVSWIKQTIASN

Take `COC(=O)[C@H](CCCCN)NS(=O)(=O)c1ccc(C)cc1.Cl`: the Known bioactivity result in data set [1] (thrombin) was “Thrombin substrate”.

`CCC1CCCN(C(=O)[C@H](CCCNC(=N)N)NS(=O)(=O)c2cccc3c(N(C)C)cccc23)C1` (stereo partly shown) [drawing 26]: in data set [1] (thrombin), the Known bioactivity result is reported as “Thrombin inhibitor”.

As for `CC(=O)O.N=C(N)c1ccc(CC(NC(=O)CNS(=O)(=O)c2ccc3ccccc3c2)C(=O)N2CCCCC2)cc1` (stereo not shown), the Known bioactivity result in data set [1] is recorded as “Thrombin inhibitor”.

As for `N=C(N)c1ccc(CC(NC(=O)CNS(=O)(=O)c2ccc3ccccc3c2)C(=O)N2CCCCC2)cc1` (stereo not shown) [drawing 31], in data set [1], the Known bioactivity result is on record as “Thrombin inhibitor”.

Consider `Cc1ccc(S(=O)(=O)N[C@@H](CCCCN)C(=O)CCl)cc1.Cl`, for which, in data set [2], the Known bioactivity entry is given as “Trypsin inhibitor”.

Turning to `N=C(N)c1ccc(CC(NC(=O)CNS(=O)(=O)c2ccc3ccccc3c2)C(=O)N2CCCCC2)cc1` (stereo not shown) [drawing 33], in data set [1], the Known bioactivity entry was “Thrombin inhibitor”.

`Cc1ccc(S(=O)(=O)NC(Cc2ccc(C(=N)N)cc2)C(=O)N2CCCCC2)cc1` (racemic) [4-TAPAP, Nα-(4-toluene-sulfonyl)-DL-p-amidinophenylalanyl-piperidine, reference compound]: in data set [1] (thrombin), the Known bioactivity entry is “thrombin inhibitors”.

As for `N=C(N)c1ccc(CC(NC(=O)CNS(=O)(=O)c2ccc3ccccc3c2)C(=O)N2CCCCC2)cc1` (stereo not shown) [drawing 16], in data set [1], the Known bioactivity result is listed as “Thrombin inhibitor”.

For `C[C@@H]1CCN(C(=O)[C@H](CCCNC(=N)N)NS(=O)(=O)c2cccc3c2NC[C@H](C)C3)[C@@H](C(=O)O)C1` [MQPA, (2R,4R)-4-methyl-1-[Nα-(3-methyl-1,2,3,4-tetrahydro-8-quinolinesulfonyl)-L-arginyl]-2-piperidinecarboxylic acid, reference compound], the Known bioactivity result in data set [1] (thrombin) is reported as “thrombin inhibitors”.

For the molecule `COc1cc(N)c(Cl)cc1C(=O)CCC1CCN(CCNS(C)(=O)=O)CC1`, the Known bioactivity in data set [3] is listed as 5-HT4 Partial agonist.

For the molecule `CCC1CCCN(C(=O)[C@H](CCCNC(=N)N)NS(=O)(=O)c2cccc3c(N(C)C)cccc23)C1` (stereo partly shown) [drawing 32], the Known bioactivity result in data set [1] (thrombin) was “Thrombin inhibitor”.

Regarding `Cc1ccc(S(=O)(=O)N[C@@H](CCCCN)C(=O)CCl)cc1`, in data set [2], the Known bioactivity entry is listed as “Trypsin inhibitor”.

In the case of `COC(=O)[C@H](CCCCN)NS(=O)(=O)c1ccc(C)cc1`, in data set [1] (thrombin), the Known bioactivity result is recorded as “Thrombin substrate”.
